According to ChEMBL document CHEMBL2417541, “Aromatic glucosides from the seeds of Prunus davidiana” (J Nat Prod, 2013):

Tested on: A2780
Assay: Cytotoxicity against human A2780 cells
Format: cell-based
Conditions: not given

Row | SMILES | IC50
1 | O=C(OC[C@H]1O[C@@H](O[C@@H](C(=O)O)c2ccccc2)[C@H](O)[C@@H](O)[C@@H]1O)c1ccccc1 | > 10 µM
2 | O=C(OC[C@H]1O[C@@H](OC[C@H]2O[C@@H](OCc3ccccc3)[C@H](O)[C@@H](O)[C@@H]2O)[C@H](O)[C@@H](O)[C@@H]1O)c1ccccc1 | > 10 µM
3 | O=C(OC[C@H]1O[C@@H](OC[C@H]2O[C@@H](OC(=O)c3ccccc3)[C@H](O)[C@@H](O)[C@@H]2O)[C@H](O)[C@@H](O)[C@@H]1O)c1ccccc1 | > 10 µM
4 | N#C[C@H](O[C@@H]1O[C@H](CO[C@@H]2O[C@H](COC(=O)c3cccnc3)[C@@H](O)[C@H](O)[C@H]2O)[C@@H](O)[C@H](O)[C@H]1O)c1ccccc1 | > 10 µM
5 | COc1cc(CO)ccc1O[C@@H]1O[C@H](COC(=O)c2ccccc2)[C@@H](O)[C@H](O)[C@H]1O | > 10 µM
6 | O=C(OC[C@H]1O[C@@H](OC[C@H](O)[C@@H](O)c2ccc(O)cc2)[C@H](O)[C@@H](O)[C@@H]1O)c1ccccc1 | > 10 µM
7 | CCOC(=O)[C@H](O[C@@H]1O[C@H](CO[C@@H]2O[C@H](CO)[C@@H](O)[C@H](O)[C@H]2O)[C@@H](O)[C@H](O)[C@H]1O)c1ccccc1 | > 10 µM

Tested on: HCT-8
Assay: Cytotoxicity against human HCT8 cells
Format: cell-based
Conditions: not given

Row | SMILES | IC50
8 | O=C(OC[C@H]1O[C@@H](O[C@@H](C(=O)O)c2ccccc2)[C@H](O)[C@@H](O)[C@@H]1O)c1ccccc1 | > 10 µM
9 | O=C(OC[C@H]1O[C@@H](OC[C@H]2O[C@@H](OCc3ccccc3)[C@H](O)[C@@H](O)[C@@H]2O)[C@H](O)[C@@H](O)[C@@H]1O)c1ccccc1 | > 10 µM
10 | O=C(OC[C@H]1O[C@@H](OC[C@H]2O[C@@H](OC(=O)c3ccccc3)[C@H](O)[C@@H](O)[C@@H]2O)[C@H](O)[C@@H](O)[C@@H]1O)c1ccccc1 | > 10 µM
11 | N#C[C@H](O[C@@H]1O[C@H](CO[C@@H]2O[C@H](COC(=O)c3cccnc3)[C@@H](O)[C@H](O)[C@H]2O)[C@@H](O)[C@H](O)[C@H]1O)c1ccccc1 | > 10 µM
12 | COc1cc(CO)ccc1O[C@@H]1O[C@H](COC(=O)c2ccccc2)[C@@H](O)[C@H](O)[C@H]1O | > 10 µM
13 | O=C(OC[C@H]1O[C@@H](OC[C@H](O)[C@@H](O)c2ccc(O)cc2)[C@H](O)[C@@H](O)[C@@H]1O)c1ccccc1 | > 10 µM
14 | CCOC(=O)[C@H](O[C@@H]1O[C@H](CO[C@@H]2O[C@H](CO)[C@@H](O)[C@H](O)[C@H]2O)[C@@H](O)[C@H](O)[C@H]1O)c1ccccc1 | > 10 µM

Tested on: Liver microsomes
Assay: Antioxidant activity in rat liver microsomes assessed as inhibition of Fe2+-cysteine-induced lipid peroxidation measured malondialdehyde level at 10^-6 M/L incubated for 15 mins prior to FeSO4 addition measured after 15 mins by TBA method relative to control
Format: functional
Conditions: Microsome

Row | SMILES | inhibition
15 | O=C(OC[C@H]1O[C@@H](O[C@@H](C(=O)O)c2ccccc2)[C@H](O)[C@@H](O)[C@@H]1O)c1ccccc1 | 53%
16 | O=C(OC[C@H]1O[C@@H](OC[C@H]2O[C@@H](OCc3ccccc3)[C@H](O)[C@@H](O)[C@@H]2O)[C@H](O)[C@@H](O)[C@@H]1O)c1ccccc1 | 59%
17 | O=C(OC[C@H]1O[C@@H](OC[C@H]2O[C@@H](OC(=O)c3ccccc3)[C@H](O)[C@@H](O)[C@@H]2O)[C@H](O)[C@@H](O)[C@@H]1O)c1ccccc1 | 56%
18 | N#C[C@H](O[C@@H]1O[C@H](CO[C@@H]2O[C@H](COC(=O)c3cccnc3)[C@@H](O)[C@H](O)[C@H]2O)[C@@H](O)[C@H](O)[C@H]1O)c1ccccc1 | 56%
19 | COc1cc(CO)ccc1O[C@@H]1O[C@H](COC(=O)c2ccccc2)[C@@H](O)[C@H](O)[C@H]1O | 41%
20 | O=C(OC[C@H]1O[C@@H](OC[C@H](O)[C@@H](O)c2ccc(O)cc2)[C@H](O)[C@@H](O)[C@@H]1O)c1ccccc1 | 57%
21 | CCOC(=O)[C@H](O[C@@H]1O[C@H](CO[C@@H]2O[C@H](CO)[C@@H](O)[C@H](O)[C@H]2O)[C@@H](O)[C@H](O)[C@H]1O)c1ccccc1 | 56%

Tested on: Liver microsomes
Assay: Antioxidant activity in rat liver microsomes assessed as inhibition of Fe2+-cysteine-induced lipid peroxidation measured malondialdehyde level at 10^-5 M/L incubated for 15 mins prior to FeSO4 addition measured after 15 mins by TBA method relative to control
Format: functional
Conditions: Microsome

Row | SMILES | inhibition
22 | O=C(OC[C@H]1O[C@@H](O[C@@H](C(=O)O)c2ccccc2)[C@H](O)[C@@H](O)[C@@H]1O)c1ccccc1 | 60%
23 | O=C(OC[C@H]1O[C@@H](OC[C@H]2O[C@@H](OCc3ccccc3)[C@H](O)[C@@H](O)[C@@H]2O)[C@H](O)[C@@H](O)[C@@H]1O)c1ccccc1 | 50%
24 | O=C(OC[C@H]1O[C@@H](OC[C@H]2O[C@@H](OC(=O)c3ccccc3)[C@H](O)[C@@H](O)[C@@H]2O)[C@H](O)[C@@H](O)[C@@H]1O)c1ccccc1 | 66%
25 | N#C[C@H](O[C@@H]1O[C@H](CO[C@@H]2O[C@H](COC(=O)c3cccnc3)[C@@H](O)[C@H](O)[C@H]2O)[C@@H](O)[C@H](O)[C@H]1O)c1ccccc1 | 67%
26 | COc1cc(CO)ccc1O[C@@H]1O[C@H](COC(=O)c2ccccc2)[C@@H](O)[C@H](O)[C@H]1O | 42%
27 | O=C(OC[C@H]1O[C@@H](OC[C@H](O)[C@@H](O)c2ccc(O)cc2)[C@H](O)[C@@H](O)[C@@H]1O)c1ccccc1 | 64%
28 | CCOC(=O)[C@H](O[C@@H]1O[C@H](CO[C@@H]2O[C@H](CO)[C@@H](O)[C@H](O)[C@H]2O)[C@@H](O)[C@H](O)[C@H]1O)c1ccccc1 | 51%

Tested on: Liver microsomes
Assay: Antioxidant activity in rat liver microsomes assessed as inhibition of Fe2+-cysteine-induced lipid peroxidation measured malondialdehyde level at 10^-4 M/L incubated for 15 mins prior to FeSO4 addition measured after 15 mins by TBA method relative to control
Format: functional
Conditions: Microsome

Row | SMILES | inhibition
29 | O=C(OC[C@H]1O[C@@H](O[C@@H](C(=O)O)c2ccccc2)[C@H](O)[C@@H](O)[C@@H]1O)c1ccccc1 | 67%
30 | O=C(OC[C@H]1O[C@@H](OC[C@H]2O[C@@H](OCc3ccccc3)[C@H](O)[C@@H](O)[C@@H]2O)[C@H](O)[C@@H](O)[C@@H]1O)c1ccccc1 | 55%
31 | O=C(OC[C@H]1O[C@@H](OC[C@H]2O[C@@H](OC(=O)c3ccccc3)[C@H](O)[C@@H](O)[C@@H]2O)[C@H](O)[C@@H](O)[C@@H]1O)c1ccccc1 | 56%
32 | N#C[C@H](O[C@@H]1O[C@H](CO[C@@H]2O[C@H](COC(=O)c3cccnc3)[C@@H](O)[C@H](O)[C@H]2O)[C@@H](O)[C@H](O)[C@H]1O)c1ccccc1 | 88%
33 | COc1cc(CO)ccc1O[C@@H]1O[C@H](COC(=O)c2ccccc2)[C@@H](O)[C@H](O)[C@H]1O | 51%
34 | O=C(OC[C@H]1O[C@@H](OC[C@H](O)[C@@H](O)c2ccc(O)cc2)[C@H](O)[C@@H](O)[C@@H]1O)c1ccccc1 | 88%
35 | CCOC(=O)[C@H](O[C@@H]1O[C@H](CO[C@@H]2O[C@H](CO)[C@@H](O)[C@H](O)[C@H]2O)[C@@H](O)[C@H](O)[C@H]1O)c1ccccc1 | 51%

Tested on: BGC-823
Assay: Cytotoxicity against human BGC823 cells
Format: cell-based
Conditions: not given

Row | SMILES | IC50
36 | O=C(OC[C@H]1O[C@@H](O[C@@H](C(=O)O)c2ccccc2)[C@H](O)[C@@H](O)[C@@H]1O)c1ccccc1 | > 10 µM
37 | O=C(OC[C@H]1O[C@@H](OC[C@H]2O[C@@H](OCc3ccccc3)[C@H](O)[C@@H](O)[C@@H]2O)[C@H](O)[C@@H](O)[C@@H]1O)c1ccccc1 | > 10 µM
38 | O=C(OC[C@H]1O[C@@H](OC[C@H]2O[C@@H](OC(=O)c3ccccc3)[C@H](O)[C@@H](O)[C@@H]2O)[C@H](O)[C@@H](O)[C@@H]1O)c1ccccc1 | > 10 µM
39 | N#C[C@H](O[C@@H]1O[C@H](CO[C@@H]2O[C@H](COC(=O)c3cccnc3)[C@@H](O)[C@H](O)[C@H]2O)[C@@H](O)[C@H](O)[C@H]1O)c1ccccc1 | > 10 µM
40 | COc1cc(CO)ccc1O[C@@H]1O[C@H](COC(=O)c2ccccc2)[C@@H](O)[C@H](O)[C@H]1O | > 10 µM
41 | O=C(OC[C@H]1O[C@@H](OC[C@H](O)[C@@H](O)c2ccc(O)cc2)[C@H](O)[C@@H](O)[C@@H]1O)c1ccccc1 | > 10 µM
42 | CCOC(=O)[C@H](O[C@@H]1O[C@H](CO[C@@H]2O[C@H](CO)[C@@H](O)[C@H](O)[C@H]2O)[C@@H](O)[C@H](O)[C@H]1O)c1ccccc1 | > 10 µM

Tested on: A549
Assay: Cytotoxicity against human A549 cells
Format: cell-based
Conditions: not given

Row | SMILES | IC50
43 | O=C(OC[C@H]1O[C@@H](O[C@@H](C(=O)O)c2ccccc2)[C@H](O)[C@@H](O)[C@@H]1O)c1ccccc1 | > 10 µM
44 | O=C(OC[C@H]1O[C@@H](OC[C@H]2O[C@@H](OCc3ccccc3)[C@H](O)[C@@H](O)[C@@H]2O)[C@H](O)[C@@H](O)[C@@H]1O)c1ccccc1 | > 10 µM
45 | O=C(OC[C@H]1O[C@@H](OC[C@H]2O[C@@H](OC(=O)c3ccccc3)[C@H](O)[C@@H](O)[C@@H]2O)[C@H](O)[C@@H](O)[C@@H]1O)c1ccccc1 | > 10 µM
46 | N#C[C@H](O[C@@H]1O[C@H](CO[C@@H]2O[C@H](COC(=O)c3cccnc3)[C@@H](O)[C@H](O)[C@H]2O)[C@@H](O)[C@H](O)[C@H]1O)c1ccccc1 | > 10 µM
47 | COc1cc(CO)ccc1O[C@@H]1O[C@H](COC(=O)c2ccccc2)[C@@H](O)[C@H](O)[C@H]1O | > 10 µM
48 | O=C(OC[C@H]1O[C@@H](OC[C@H](O)[C@@H](O)c2ccc(O)cc2)[C@H](O)[C@@H](O)[C@@H]1O)c1ccccc1 | > 10 µM
49 | CCOC(=O)[C@H](O[C@@H]1O[C@H](CO[C@@H]2O[C@H](CO)[C@@H](O)[C@H](O)[C@H]2O)[C@@H](O)[C@H](O)[C@H]1O)c1ccccc1 | > 10 µM

Tested on: Bel-7402
Assay: Cytotoxicity against human Bel7402 cells
Format: cell-based
Conditions: not given

Row | SMILES | IC50
50 | O=C(OC[C@H]1O[C@@H](O[C@@H](C(=O)O)c2ccccc2)[C@H](O)[C@@H](O)[C@@H]1O)c1ccccc1 | > 10 µM
51 | O=C(OC[C@H]1O[C@@H](OC[C@H]2O[C@@H](OCc3ccccc3)[C@H](O)[C@@H](O)[C@@H]2O)[C@H](O)[C@@H](O)[C@@H]1O)c1ccccc1 | > 10 µM
52 | O=C(OC[C@H]1O[C@@H](OC[C@H]2O[C@@H](OC(=O)c3ccccc3)[C@H](O)[C@@H](O)[C@@H]2O)[C@H](O)[C@@H](O)[C@@H]1O)c1ccccc1 | > 10 µM
53 | N#C[C@H](O[C@@H]1O[C@H](CO[C@@H]2O[C@H](COC(=O)c3cccnc3)[C@@H](O)[C@H](O)[C@H]2O)[C@@H](O)[C@H](O)[C@H]1O)c1ccccc1 | > 10 µM
54 | COc1cc(CO)ccc1O[C@@H]1O[C@H](COC(=O)c2ccccc2)[C@@H](O)[C@H](O)[C@H]1O | > 10 µM
55 | O=C(OC[C@H]1O[C@@H](OC[C@H](O)[C@@H](O)c2ccc(O)cc2)[C@H](O)[C@@H](O)[C@@H]1O)c1ccccc1 | > 10 µM
56 | CCOC(=O)[C@H](O[C@@H]1O[C@H](CO[C@@H]2O[C@H](CO)[C@@H](O)[C@H](O)[C@H]2O)[C@@H](O)[C@H](O)[C@H]1O)c1ccccc1 | > 10 µM
